# In US10077238B2, “Small molecule LFA-1 inhibitors” (ALLOCYTE PHARMACEUTICALS AG, priority 2014, dated 2018):
# pIC50: −log10 of the molar value. Where “and” joins values, the source holds several entries; their conditions need not be identical. Identical values can stand only once.
# Molecular target: T1, LFA-1 (Homo sapiens, UniProt P20701)
# T1 construct: endogenous in cells; host or cells: Jurkat cells
# Experiment: V well cell adhesion assay, LFA-1-mediated Jurkat cell binding to ICAM-1 (LFA-1 adhesion)
# Type: cell-based
# Conditions: Jurkat cells on ICAM-1/Fc; mean ±SD of ≥3 independent experiments in triplicates or single experiments in triplicates
# Protocol: Cell-Based Assay to Determine the Effect of the Compounds on LFA-1-Mediated Cell Adhesion (LFA-1 Adhesion)
# Purpose of the Assay: The V well cell adhesion assay measures the ability of the compounds to interfere with LFA-1-mediated binding to ICAM-1 at cellular level. The assay has been successfully used in the past to identify and characterize small molecules LFA-1 inhibitors.
# Experimental Protocol: The adhesion assay was performed in Vbottom 96-well plates as described previously [Weitz-Schmidt 2012]. Briefly, the plates were coated with anti-human IgG mAb diluted in coating buffer (20 mM Tris containing 150 mM NaCl, pH 8) (1 μg/mL) and incubated overnight at 4° C. The plates were flicked out and blocked with blocking buffer (50 mM Tris base, 150 mM NaCl, 1.5% BSA (w/v), pH 7.2) at 37° C. for 90 min. Then human recombinant ICAM-1/Fc (R&D Systems) diluted in coating buffer (0.3 μg/mL) was added to each well. The plates were incubated at 37° C. for 90 min and washed with binding buffer (50 mM Tris base, 150 mM NaCl, 1.5% BSA (w/v), 2 mM MgCl2, 2 mM MnCl2, 5 mM D-glucose monohydrate, pH 7.2-7.4) to remove unbound ligand.
# Jurkat cells were cultured under standard conditions as recommended by the American Type Culture collection (ATCC). The cells were fluorescently labelled with BCECF-AM in PBS (1 μg/mL) at 37° C. for 20 min in the dark, centrifuged and washed with PBS. The test compounds were dissolved in DMSO at 10 mM and serially pre-diluted in DMSO (100%) to avoid precipitation, before performing final dilution steps in binding buffer.
# The labelled Jurkat cells were re-suspended in binding buffer and test compounds or solvent control were added. The DMSO concentration was kept constant in all samples (1% DMSO as final assay concentration). After 40 min at 37° C. (LFA-1 activation and compound pre-incubation step) the cell suspension (3×10^5 cells/mL in binding buffer) was pipetted up and down and transferred to the ligand-coated microtiter V well plates (30 000 cells/well). The plates were centrifuged for 4 min at room temperature (rt) at 1000 rpm (Centrifuge Eppendorf 5810 R), setting the brake off Non-adherent cells that accumulated in the center of the Vbottom were quantified using a fluorescence reader with the filter sets allowing excitation at 485 nm and quantification of emission at 535 nm. The determination of the half maximal inhibitory concentration (IC50) of the compounds was calculated using the software GraphPad Prism 6.
# T1 sequence (P20701 26-1170): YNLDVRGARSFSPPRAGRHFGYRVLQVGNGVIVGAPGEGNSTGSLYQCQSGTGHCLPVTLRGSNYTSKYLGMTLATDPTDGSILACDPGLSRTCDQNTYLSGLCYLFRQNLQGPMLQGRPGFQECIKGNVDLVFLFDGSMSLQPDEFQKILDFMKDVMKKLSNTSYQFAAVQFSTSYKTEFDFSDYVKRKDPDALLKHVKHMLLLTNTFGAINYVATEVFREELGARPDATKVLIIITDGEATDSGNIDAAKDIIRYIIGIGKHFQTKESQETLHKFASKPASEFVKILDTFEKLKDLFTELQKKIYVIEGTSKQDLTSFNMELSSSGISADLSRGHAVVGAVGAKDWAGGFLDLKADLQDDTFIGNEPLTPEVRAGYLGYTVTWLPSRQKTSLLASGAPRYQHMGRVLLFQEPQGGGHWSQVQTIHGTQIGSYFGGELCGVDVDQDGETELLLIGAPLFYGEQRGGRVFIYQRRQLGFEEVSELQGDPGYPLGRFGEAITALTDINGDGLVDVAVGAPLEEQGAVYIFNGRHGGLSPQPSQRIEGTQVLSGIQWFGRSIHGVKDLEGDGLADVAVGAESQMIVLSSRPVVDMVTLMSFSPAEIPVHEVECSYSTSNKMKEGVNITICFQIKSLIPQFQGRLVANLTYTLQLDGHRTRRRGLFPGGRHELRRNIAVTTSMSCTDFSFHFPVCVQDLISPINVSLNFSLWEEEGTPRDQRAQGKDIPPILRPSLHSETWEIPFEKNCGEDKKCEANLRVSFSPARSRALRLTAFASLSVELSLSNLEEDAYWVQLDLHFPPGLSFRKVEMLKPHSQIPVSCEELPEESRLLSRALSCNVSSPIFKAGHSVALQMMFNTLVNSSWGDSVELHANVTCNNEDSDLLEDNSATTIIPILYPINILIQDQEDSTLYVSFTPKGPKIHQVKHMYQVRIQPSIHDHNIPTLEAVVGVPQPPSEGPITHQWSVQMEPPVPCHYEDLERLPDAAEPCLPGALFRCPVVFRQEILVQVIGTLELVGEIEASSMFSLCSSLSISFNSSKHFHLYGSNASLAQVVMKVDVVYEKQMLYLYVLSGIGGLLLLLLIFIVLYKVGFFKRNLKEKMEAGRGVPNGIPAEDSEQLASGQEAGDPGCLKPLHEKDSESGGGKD
# T1 sequence (P05107 23-769 partner): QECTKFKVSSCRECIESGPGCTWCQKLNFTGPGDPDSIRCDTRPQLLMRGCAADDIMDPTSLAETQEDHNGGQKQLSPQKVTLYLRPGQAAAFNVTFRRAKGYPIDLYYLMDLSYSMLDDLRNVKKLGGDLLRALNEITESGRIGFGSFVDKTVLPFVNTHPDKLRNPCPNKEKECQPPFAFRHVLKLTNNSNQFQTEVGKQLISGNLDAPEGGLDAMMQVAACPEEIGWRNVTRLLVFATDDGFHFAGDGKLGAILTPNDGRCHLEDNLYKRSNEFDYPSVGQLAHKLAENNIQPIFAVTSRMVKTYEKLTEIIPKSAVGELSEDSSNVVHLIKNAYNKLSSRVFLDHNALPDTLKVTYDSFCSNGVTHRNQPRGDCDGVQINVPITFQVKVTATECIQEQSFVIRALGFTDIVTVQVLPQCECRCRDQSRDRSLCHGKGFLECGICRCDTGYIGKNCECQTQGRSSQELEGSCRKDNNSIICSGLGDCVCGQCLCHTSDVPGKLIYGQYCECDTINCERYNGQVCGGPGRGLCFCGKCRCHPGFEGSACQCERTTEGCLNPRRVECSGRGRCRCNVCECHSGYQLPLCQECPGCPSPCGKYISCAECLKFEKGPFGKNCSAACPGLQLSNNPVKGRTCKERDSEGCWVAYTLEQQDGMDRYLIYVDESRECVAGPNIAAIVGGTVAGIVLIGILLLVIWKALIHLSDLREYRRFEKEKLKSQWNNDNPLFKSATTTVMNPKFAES
row,pIC50,Compound
1,5.48,"O=C1[C@@H]2[C@H](C(=O)N1c1cc(Cl)cc(Cl)c1)[C@@H]2c1ccc(Br)cc1 [4′e, rel-(1R,5S,6r)-6-(4-Bromophenyl)-3-(3,5-dichloro-phenyl)-3-azabicyclo[3.1.0]hexane-2,4-dione]"
2,6.25 and 6.28,"CC12C(=O)N(c3cc(Cl)cc(Cl)c3)C(=O)C1C2(c1ccc(C#N)cc1)c1ccc(OC(F)(F)F)cc1 (single isomer, unassigned) [4i/4′i diastereomer I (racemate), rac-4-[(1 S, 5S, 6S)- and rac-4-(1 S, 5S, 6R)-3-(3,5-Dichlorophenyl)-1-methyl-2,4-dioxo-6-[4-(trifluoro-methoxy)-phenyl]-3-azabicyclo[3.1.0]hexan-6-yl]benzonitrile]"
3,5.46,"C[C@]12C(=O)N(c3cc(Cl)cc(Cl)c3)C(=O)[C@H]1[C@@]2(C(=O)N1CCOCC1)c1ccc(Br)cc1 (racemic) [4′k (racemate), rac-(1S,5R,6R)-6-(4-Bromophenyl)-3-(3,5-dichlorophenyl)-1-methyl-6-[(morpholin-4-yl)carbonyl]-3-azabicyclo[3.1.0]hexane-2,4-dione]"
4,6.39,"C[C@]12C(=O)N(c3cc(Cl)cc(Cl)c3)C(=O)[C@H]1[C@@]2(C(=O)N1CCOCC1)c1ccc(OC(F)(F)F)cc1 (racemic) [4′m (racemate), rac-(1S,5R,6R)-3-(3,5-Dichlorophenyl)-1-methyl-6-[(morpholin-4-yl)carbonyl]-6-[4-(trifluoromethoxy)phenyl]-3-azabicyclo[3.1.0]hexane-2,4-dione]"
5,< 6.00,"N#Cc1ccc(C2(c3ccncc3)C3C(=O)N(c4cc(Cl)cc(Cl)c4)C(=O)C32)cc1 (single isomer, unassigned) [4y or 4′y diastereomer I, rel-4-[(1 S, 5R, 6s)- and rel-4-[(1 S, 5R, 6r)-3-(3,5-Dichlorophenyl)-2,4-dioxo-6-(pyridin-4-yl)-3-azabicyclo[3.1.0]hexan-6-yl]benzonitrile]"
6,6.02,"N#Cc1ccc(C2(c3ccc(OC(F)(F)F)cc3)C3C(=O)N(c4cc(Cl)cc(Cl)c4)C(=O)C32)cc1 (single isomer, unassigned) [4r or 4′r diastereomer I]"
7,5.80,"O=C1[C@@H]2[C@H](C(=O)N1c1cc(Cl)cc(Cl)c1)[C@@H]2c1ccccc1 [4′c, rel-(1R,5S,6r)-3-(3,5-Dichlorophenyl)-6-phenyl-3-azabicyclo[3.1.0]hexane-2,4-dione]"
8,6.20,"C[C@]12C(=O)N(c3cc(Cl)cc(Cl)c3)C(=O)[C@H]1[C@@]2(C(=O)N1CCOCC1)c1ccc(C#N)cc1 (racemic) [4′n (racemate), rac-4-[(1S,5R,6R)-3-(3,5-Dichlorophenyl)-1-methyl-6-[(morpholin-4-yl)carbonyl]-2,4-dioxo-3-azabicyclo[3.1.0]hexan-6-yl]benzonitrile]"
9,6.34,"CC12C(=O)N(c3cc(Cl)cc(Cl)c3)C(=O)C1C2(c1ccccc1)c1ccncc1 (single isomer, unassigned) [4 o or 4′o diastereomer II (racemate), rac-(1 S, 5S, 6S)- and rac-(1 S, 5S, 6R)-3-(3,5-Dichlorophenyl)-1-methyl-6-phenyl-6-(pyridin-4-yl)-3-azabicyclo[3.1.0]hexane-2,4-dione]"
10,< 5.52,"CC12C(=O)N(c3cc(Cl)cc(Cl)c3)C(=O)C1C2(c1ccccc1)c1ccncc1 (single isomer, unassigned) [4 o or 4′o diastereomer I (racemate), rac-(1 S, 5S, 6S)- and rac-(1 S, 5S, 6R)-3-(3,5-Dichlorophenyl)-1-methyl-6-phenyl-6-(pyridin-4-yl)-3-azabicyclo[3.1.0]hexane-2,4-dione]"
11,< 5.52,"C[C@]12C(=O)N(c3cc(Cl)cc(Cl)c3)C(=O)[C@H]1[C@@]2(C(=O)N1CCOCC1)c1ccc(C(F)(F)F)cc1 (racemic) [4′l (racemate), rac-(1S,5R,6R)-3-(3,5-Dichlorophenyl)-1-methyl-6-[(morpholin-4-yl)carbonyl]-6-[4-(trifluoromethyl)phenyl]-3-azabicyclo[3.1.0]hexane-2,4-dione]"
12,6.82,"COc1ccc(C2(c3ccc(Cl)cc3)C3C(=O)N(c4cc(Cl)cc(Cl)c4)C(=O)C32C)cc1 (single isomer, unassigned) [4s or 4′s diastereomer II (racemate), rac-(1 S, 5S, 6R)- and rac-(1 S, 5S, 6S)-6-(4-Chlorophenyl)-3-(3,5-dichlorophenyl)-6-(4-methoxyphenyl)-1-methyl-3-azabicyclo[3.1.0]hexane-2,4-dione]"
13,7.15,"CC12C(=O)N(c3cc(Cl)cc(Cl)c3)C(=O)C1C2(c1ccncc1)c1ccc(C#N)cc1 (single isomer, unassigned) [4z or 4′z diastereomer II (racemate)]"
14,< 6.00,"CC12C(=O)N(c3cc(Cl)cc(Cl)c3)C(=O)C1C2(c1ccncc1)c1ccc(C#N)cc1 (single isomer, unassigned) [4z or 4′z diastereomer I (racemate)]"
15,6.88,"N#Cc1ccc(C2(c3ccc(OC(F)(F)F)cc3)C3C(=O)N(c4cc(Cl)cc(Cl)c4)C(=O)C32)cc1 (single isomer, unassigned) [4r or 4′r diastereomer II]"
16,≤ 6.00,"N#Cc1ccc(C2(c3ccncc3)C3C(=O)N(c4cc(Cl)cc(Cl)c4)C(=O)C32)cc1 (single isomer, unassigned) [4y or 4′y diastereomer II, rel-4-[(1 S, 5R, 6s)- and rel-4-[(1 S, 5R, 6r)-3-(3,5-Dichlorophenyl)-2,4-dioxo-6-(pyridin-4-yl)-3-azabicyclo[3.1.0]hexan-6-yl]benzonitrile]"
17,6.06,"CC12C(=O)N(c3cc(Cl)cc(Cl)c3)C(=O)C1C2(c1ccccc1)c1ccco1 (single isomer, unassigned) [4t or 4′t Diastereomer I (racemate), rac-(1 S, 5S, 6R)- and rac-(1 S, 5S, 6S)-3-(3,5-Dichlorophenyl)-6-(furan-2-yl)-1-methyl-6-phenyl-3-azabicyclo[3.1.0]hexane-2,4-dione]"
18,5.07,"O=C1[C@@H]2[C@H](C(=O)N1c1cc(Cl)cc(Cl)c1)C2(c1ccccc1)c1ccccc1 [Compound 4a, 3-(3,5-Dichlorophenyl)-6,6-diphenyl-3-azabicyclo[3.1.0]hexane-2,4-dione]"
19,7.00,"C[C@]12C(=O)N(c3cc(Cl)cc(Cl)c3)C(=O)[C@H]1C2(c1ccc(OC(F)(F)F)cc1)c1ccc(OC(F)(F)F)cc1 (racemic) [4q (racemate), rac-(1S,5S)-3-(3,5-Dichlorophenyl)-1-methyl-6,6-bis[4-(trifluoromethoxy)phenyl]-3-azabicyclo[3.1.0]hexane-2,4-dione]"
20,5.74,"COc1ccc(C2(c3ccc(Cl)cc3)C3C(=O)N(c4cc(Cl)cc(Cl)c4)C(=O)C32C)cc1 (single isomer, unassigned) [4s or 4′s diastereomer I (racemate), rac-(1 S, 5S, 6R)- and rac-(1 S, 5S, 6S)-6-(4-Chlorophenyl)-3-(3,5-dichlorophenyl)-6-(4-methoxyphenyl)-1-methyl-3-azabicyclo[3.1.0]hexane-2,4-dione]"

row,Compound,pIC50
1,"CC12C(=O)N(c3cc(Cl)cc(Cl)c3)C(=O)C1C2(c1ccccc1)c1ccccc1 (single isomer, unassigned) [4b enantiomer B]",< 5.00
